Columns and labels:
Human HDAC9 = molecular target: T1, Human HDAC9 (Homo sapiens, UniProt Q9UKV0); test: HDAC9 biochemical assay, class IIa-specific substrate; settings: read-out: HDAC Isoform IC50 (nM) 9
T1 construct: amino acids 604-1066 with C-terminal His tag; His (C); host or cells: baculovirus expression system
Procedure, shortened: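 HDAC9 residues 604-1066 (C-terminal His tag, baculovirus-expressed) at 0.06 ng/ul with 50 μM class IIa substrate Boc-Lys(trifluoroacetyl)-AMC in Tris-HCl pH 8.0 buffer with BSA and 1% DMSO. 30 min at room temperature, then developer added; fluorescence read at 360/460 nm Ex/Em.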

Human HDAC7 = molecular target: T2, Human HDAC7 (Homo sapiens, UniProt Q8WUI4); test: HDAC7 biochemical assay, class IIa-specific substrate; settings: read-out: HDAC Isoform IC50 (nM) 7
T2 construct: (a.a. 518-end) with N-terminal GST tag; GST (N); host or cells: baculovirus expression system
T2 sequence (Q8WUI4 518-952 limits assumed): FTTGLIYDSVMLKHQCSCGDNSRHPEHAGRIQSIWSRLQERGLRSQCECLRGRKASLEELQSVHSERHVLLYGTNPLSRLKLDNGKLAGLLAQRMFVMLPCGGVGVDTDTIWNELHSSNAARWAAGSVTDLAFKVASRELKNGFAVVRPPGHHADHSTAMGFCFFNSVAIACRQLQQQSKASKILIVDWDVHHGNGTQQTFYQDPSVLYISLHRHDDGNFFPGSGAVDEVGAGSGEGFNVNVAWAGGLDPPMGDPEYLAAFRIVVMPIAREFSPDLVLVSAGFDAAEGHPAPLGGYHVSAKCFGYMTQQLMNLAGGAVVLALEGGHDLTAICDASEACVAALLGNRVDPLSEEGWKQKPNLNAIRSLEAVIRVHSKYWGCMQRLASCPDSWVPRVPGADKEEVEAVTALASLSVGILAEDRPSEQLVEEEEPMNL
Procedure, shortened: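 Two-step fluorogenic readout: class IIa-selective trifluoroacetyl-lysine AMC substrate (50 μM) deacetylated by N-terminal GST-HDAC7 fragment (0.001 ng/ul), then digested by developer, Ex/Em 360/460. Reaction: 30 min, room temperature, Tris-HCl pH 8.0, NaCl/KCl/MgCl2, 1 mg/mL BSA, 1% DMSO.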

T1 sequence (Q9UKV0 604-1066 isoform Q9UKV0-5): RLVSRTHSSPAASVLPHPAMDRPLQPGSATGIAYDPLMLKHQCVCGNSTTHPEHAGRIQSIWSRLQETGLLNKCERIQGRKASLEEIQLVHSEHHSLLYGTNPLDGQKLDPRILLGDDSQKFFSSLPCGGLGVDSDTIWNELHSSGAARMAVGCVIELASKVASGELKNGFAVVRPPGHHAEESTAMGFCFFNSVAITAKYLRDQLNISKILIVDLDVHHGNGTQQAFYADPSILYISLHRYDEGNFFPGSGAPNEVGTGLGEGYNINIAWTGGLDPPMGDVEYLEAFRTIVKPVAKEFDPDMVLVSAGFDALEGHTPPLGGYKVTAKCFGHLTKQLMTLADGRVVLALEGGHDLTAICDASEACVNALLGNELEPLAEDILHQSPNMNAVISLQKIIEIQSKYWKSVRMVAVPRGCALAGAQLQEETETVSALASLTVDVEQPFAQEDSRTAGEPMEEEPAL

Structure (SMILES)	IC50 (Human HDAC9) [nM]	IC50 (Human HDAC7) [nM]
FC(F)(F)c1nc(-c2ccc(CN(c3cnccn3)c3cc(-c4ccccn4)cnn3)s2)no1 [Example GM, N-(Pyrazin-2-yl)-5-(pyridin-2-yl)-N-({5-[5-(trifluoromethyl)-1,2,4-oxadiazol-3-yl]thiophen-2-yl}methyl)pyridazin-3-amine]	≤ 10000	≤ 500
O=C(O)c1cnnc(N(Cc2sc(-c3noc(C(F)(F)F)n3)cc2F)c2cnccn2)c1 [Example FA, 6-[({3-fluoro-5-[5-(trifluoromethyl)-1,2,4-oxadiazol-3-yl]thiophen-2-yl}methyl)(pyrazin-2-yl)amino]pyridazine-4-carboxylic acid]	≤ 10000	≤ 1000
OC1(c2cnnc(N(Cc3ccc(-c4noc(C(F)(F)F)n4)s3)c3cnccn3)c2)COC1 [Example GW, 3-{6-[(Pyrazin-2-yl)({5-[5-(trifluoromethyl)-1,2,4-oxadiazol-3-yl]thiophen-2-yl}methyl)amino]pyridazin-4-yl}oxetan-3-ol]	≤ 10000	≤ 1000
CC(C)OC1CN(C(=O)c2cnnc(N(Cc3ccc(-c4noc(C(F)(F)F)n4)s3)c3cnccn3)c2)C1 [Example GC, 5-[3-(Propan-2-yloxy)azetidine-1-carbonyl]-N-(pyrazin-2-yl)-N-({5-[5-(trifluoromethyl)-1,2,4-oxadiazol-3-yl]thiophen-2-yl}methyl)pyridazin-3-amine]	≤ 10000	≤ 500
Fc1ccnc(N(Cc2ccc(-c3noc(C(F)(F)F)n3)s2)c2cnccn2)c1 [Example AG, N-(4-Fluoropyridin-2-yl)-N-({5-[5-(trifluoromethyl)-1,2,4-oxadiazol-3-yl]thiophen-2-yl}methyl)pyrazin-2-amine]	≤ 10000	≤ 10000
FC(F)(F)c1nc(-c2ccc(CN(c3cnccn3)c3cnc(N4CCOCC4)cn3)s2)no1 [Example BM, 5-(Morpholin-4-yl)-N-(pyrazin-2-yl)-N-({5-[5-(trifluoromethyl)-1,2,4-oxadiazol-3-yl]thiophen-2-yl}methyl)pyrazin-2-amine]	≤ 10000	≤ 10000
FC(F)(F)c1nc(-c2ccc(CN(c3cnccn3)c3cc(N4CCOCC4)cnn3)s2)no1 [Example FP, 5-(Morpholin-4-yl)-N-(pyrazin-2-yl)-N-({5-[5-(trifluoromethyl)-1,2,4-oxadiazol-3-yl]thiophen-2-yl}methyl)pyridazin-3-amine]	≤ 10000	≤ 10000
O=C(c1cnnc(N(Cc2ccc(-c3noc(C(F)(F)F)n3)s2)c2cnccn2)c1)N1CC(O)(C(F)(F)F)C1 [Example GD, 1-{6-[(Pyrazin-2-yl)({5-[5-(trifluoromethyl)-1,2,4-oxadiazol-3-yl]thiophen-2-yl}methyl)amino]pyridazine-4-carbonyl}-3-(trifluoromethyl)azetidin-3-ol]	≤ 10000	≤ 1000
Cc1cncc(N(Cc2ccc(-c3noc(C(F)(F)F)n3)s2)c2cnccn2)n1 [Example BP, 6-Methyl-N-(pyrazin-2-yl)-N-({5-[5-(trifluoromethyl)-1,2,4-oxadiazol-3-yl]thiophen-2-yl}methyl)pyrazin-2-amine]	≤ 10000	≤ 10000
COc1cncc(N(Cc2ccc(-c3noc(C(F)(F)F)n3)s2)c2cnccn2)n1 [Example BQ, 6-Methoxy-N-(pyrazin-2-yl)-N-({5-[5-(trifluoromethyl)-1,2,4-oxadiazol-3-yl]thiophen-2-yl}methyl)pyrazin-2-amine]	≤ 10000	≤ 10000
NC(=O)c1nccnc1N(Cc1ccc(-c2noc(C(F)(F)F)n2)s1)c1cnccn1 [Example GO, 3-[(Pyrazin-2-yl)({5-[5-(trifluoromethyl)-1,2,4-oxadiazol-3-yl]thiophen-2-yl}methyl)amino]pyrazine-2-carboxamide]	≤ 10000	≤ 10000
Nc1cnnc(N(Cc2ccc(-c3noc(C(F)(F)F)n3)s2)c2cnccn2)c1 [Example FL, N3-(Pyrazin-2-yl)-N3-({5-[5-(trifluoromethyl)-1,2,4-oxadiazol-3-yl]thiophen-2-yl}methyl)pyridazine-3,5-diamine]	≤ 1000	≤ 500
Cc1cnnc(N(Cc2ccc(-c3noc(C(F)(F)F)n3)s2)c2cnccn2)c1 [Example GN, 5-Methyl-N-(pyrazin-2-yl)-N-({5-[5-(trifluoromethyl)-1,2,4-oxadiazol-3-yl]thiophen-2-yl}methyl)pyridazin-3-amine]	≤ 10000	≤ 1000
FC(F)(F)c1cncc(N(Cc2ccc(-c3noc(C(F)(F)F)n3)s2)c2cnccn2)n1 [Example BR, N-(Pyrazin-2-yl)-6-(trifluoromethyl)-N-({5-[5-(trifluoromethyl)-1,2,4-oxadiazol-3-yl]thiophen-2-yl}methyl)pyrazin-2-amine]	≤ 10000	≤ 10000
CC(F)(F)c1cnnc(N(Cc2ccc(-c3noc(C(F)(F)F)n3)s2)c2cnccn2)c1 [Example GU, 5-(1,1-Difluoroethyl)-N-(pyrazin-2-yl)-N-({5-[5-(trifluoromethyl)-1,2,4-oxadiazol-3-yl]thiophen-2-yl}methyl)pyridazin-3-amine]	≤ 10000	≤ 10000
O=C(O)c1ccc(N(Cc2sc(-c3noc(C(F)(F)F)n3)cc2F)c2cnccn2)nn1 [Example EZ, 6-[({3-Fluoro-5-[5-(trifluoromethyl)-1,2,4-oxadiazol-3-yl]thiophen-2-yl}methyl)(pyrazin-2-yl)amino]pyridazine-3-carboxylic acid]	≤ 10000	≤ 10000
CC1(c2cnnc(N(Cc3ccc(-c4noc(C(F)(F)F)n4)s3)c3cnccn3)c2)COC1 [Example GT, 5-(3-Methyloxetan-3-yl)-N-(pyrazin-2-yl)-N-({5-[5-(trifluoromethyl)-1,2,4-oxadiazol-3-yl]thiophen-2-yl}methyl)pyridazin-3-amine]	≤ 10000	≤ 10000
FC(F)c1cnnc(N(Cc2ccc(-c3noc(C(F)(F)F)n3)s2)c2cnccn2)c1 [Example GV, 5-(Difluoromethyl)-N-(pyrazin-2-yl)-N-({5-[5-(trifluoromethyl)-1,2,4-oxadiazol-3-yl]thiophen-2-yl}methyl)pyridazin-3-amine]	≤ 10000	≤ 1000
CC(C)(O)c1cnnc(N(Cc2ccc(-c3noc(C(F)(F)F)n3)s2)c2cnccn2)c1 [Example GS, 2-{6-[(Pyrazin-2-yl)({5-[5-(trifluoromethyl)-1,2,4-oxadiazol-3-yl]thiophen-2-yl}methyl)amino]pyridazin-4-yl}propan-2-ol]	≤ 10000	≤ 1000
C[C@H]1CCCN1C(=O)c1cnnc(N(Cc2ccc(-c3noc(C(F)(F)F)n3)s2)c2cnccn2)c1 [Example GY, 5-[(2S)-2-Methylpyrrolidine-1-carbonyl]-N-(pyrazin-2-yl)-N-({5-[5-(trifluoromethyl)-1,2,4-oxadiazol-3-yl]thiophen-2-yl}methyl)pyridazin-3-amine]	≤ 10000	≤ 10000
O=C(c1cnnc(N(Cc2ccc(-c3noc(C(F)(F)F)n3)s2)c2cnccn2)c1)N1CCC(F)(F)CC1 [Example FY, 5-(4,4-Difluoropiperidine-1-carbonyl)-N-(pyrazin-2-yl)-N-({5-[5-(trifluoromethyl)-1,2,4-oxadiazol-3-yl]thiophen-2-yl}methyl)pyridazin-3-amine]	≤ 10000	≤ 10000
O=C(c1cnnc(N(Cc2ccc(-c3noc(C(F)(F)F)n3)s2)c2cnccn2)c1)N1CC2(COC2)C1 [Example FZ, 5-{2-Oxa-6-azaspiro[3.3]heptane-6-carbonyl}-N-(pyrazin-2-yl)-N-({5-[5-(trifluoromethyl)-1,2,4-oxadiazol-3-yl]thiophen-2-yl}methyl)pyridazin-3-amine]	≤ 10000	≤ 1000
O=C(c1nccnc1N(Cc1ccc(-c2noc(C(F)(F)F)n2)s1)c1cnccn1)N1CC(O)(C(F)(F)F)C1 [Example GQ, 1-{3-[(Pyrazin-2-yl)({5-[5-(trifluoromethyl)-1,2,4-oxadiazol-3-yl]thiophen-2-yl}methyl)amino]pyrazine-2-carbonyl}-3-(trifluoromethyl)azetidin-3-ol]	≤ 10000	≤ 10000
CC(=O)Nc1cnnc(N(Cc2ccc(-c3noc(C(F)(F)F)n3)s2)c2cnccn2)c1 [Example FM, N-{6-[(Pyrazin-2-yl)({5-[5-(trifluoromethyl)-1,2,4-oxadiazol-3-yl]thiophen-2-yl}methyl)amino]pyridazin-4-yl}acetamide]	≤ 10000	≤ 1000
O=C(c1cnnc(N(Cc2ccc(-c3noc(C(F)(F)F)n3)s2)c2cnccn2)c1)N1C2CCC1COC2 [Example GB, 5-{3-Oxa-8-azabicyclo[3.2.1]octane-8-carbonyl}-N-(pyrazin-2-yl)-N-({5-[5-(trifluoromethyl)-1,2,4-oxadiazol-3-yl]thiophen-2-yl}methyl)pyridazin-3-amine]	≤ 10000	≤ 10000

Source: patent US20210038607A1, “OXADIAZOLYLTHIOPHENE DERIVATIVES USEFUL AS HISTONE DEACETYLASE INHIBITORS” (Karus Therapeutics Limited, priority 2018, published 2021)
